In US20100093706A1, “MULTIMEDIATOR TRANSPORTER INHIBITORS FOR USE IN TREATMENT OF CENTRAL NERVOUS SYSTEM DISORDERS” (priority 2006, published 2010):

Columns and labels:
in vivo = conditions: rat
M1 receptor = molecular target: T1, M1 receptor (Homo sapiens, UniProt P11229); assay: in vitro selectivity panel, M1 receptor; assay type: binding
T1 sequence (P11229 1-460): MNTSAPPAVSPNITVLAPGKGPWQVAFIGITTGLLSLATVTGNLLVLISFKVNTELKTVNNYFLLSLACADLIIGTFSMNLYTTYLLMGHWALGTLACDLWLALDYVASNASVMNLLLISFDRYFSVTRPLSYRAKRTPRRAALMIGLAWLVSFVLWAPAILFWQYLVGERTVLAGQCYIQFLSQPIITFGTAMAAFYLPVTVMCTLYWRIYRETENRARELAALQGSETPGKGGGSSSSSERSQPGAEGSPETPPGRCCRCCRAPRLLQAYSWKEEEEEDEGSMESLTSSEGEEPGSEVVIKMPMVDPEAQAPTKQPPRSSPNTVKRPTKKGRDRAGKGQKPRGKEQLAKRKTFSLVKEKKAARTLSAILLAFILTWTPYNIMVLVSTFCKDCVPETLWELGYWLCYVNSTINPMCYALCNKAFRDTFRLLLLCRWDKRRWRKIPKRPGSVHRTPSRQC
Description: (§1) The in vitro selectivity profile of two representative subject compounds, (3) and (1), are also tested against a panel of other receptors, including the M1 receptor, Histamine H1 receptor, sigma-1 (σ1) receptor, β1-adrenergic receptor, and dopamine D2 receptor. Representative results are listed below in Table III: […]

sigma-1 (σ1) receptor = sigma-1 (σ1) receptor (Homo sapiens, UniProt Q99720); assay: in vitro selectivity panel, sigma-1 receptor; assay type: binding
Description: as §1

rats = assay: forced swim test (behavioral despair assay) in rats; assay type: in vivo; conditions: rat, i.p., racemic mixtures of diastereomers
Description: In vivo efficacy of several illustrative inhibitors of the instant invention, (1), (3), and (4), were measured using standard forced swim test model using rat. The objective of this study was to assess the antidepressant effects of test compounds in the behavioral despair assay in rats using a modification of a method described by Porsolt R. D. et al. in Behavioural despair in rats: a new model sensitive to antidepressant treatment, Eur. J. Pharmacol., 47: 379-391, 1978; Porsolt et al., Nature 266: 730-732, 1977; and Porsolt et al., in Psychopharmacology, Olivier, Mos, and Slangen (eds) Birkhäuser Verlag, Basel, pp. 137-159, 1991. Briefly, when mice (or rats) are forced to swim in a cylinder from which no escape is possible, they readily adopt a characteristic immobile posture and make no further attempts to escape except for small movements needed to keep floating. The immobility is considered by some to reflect a “depressive mood” (Porsolt et al., Nature 266: 730-732, 1977) in which animals cease to struggle to escape the aversive situation. The immobility induced by the procedure is influenced by a wide variety of antidepressants (Porsolt et al., in Psychopharmacology, Olivier, Mos, and Slangen (eds) Birkhauser Verlag, Basel, pp. 137-159, 1991) and has a good predictive validity in that it detects antidepressants with different mechanisms of action (TCAs, SSRIs, MAOIs, and other atypical ones). The test is sensitive to muscle-relaxant (benzodiazepines) and sedative (neuroleptics) effects, leading to enhanced immobility (Porsolt et al., supra).
In a typical experiment, animals are placed singly into a cylinder (e.g. 46×30 cm) containing fresh water at about 20° C. for 6 minutes. The activity (or immobility) of the animal is measured by an observer minute by minute. In more detail, the animals were preconditioned in a pretest session, where the rats were individually forced to swim inside a vertical plexiglass cylinder containing water maintained at 19-20° C. After 15 minutes in the water, they were allowed to dry for […] in a heated enclosure. Twenty-four hours later, the compounds were administered either intraperitoneally or orally to the animals. One hour after administration of the test compound, animals were put back into the cylinder containing water. The total duration of immobility was measured during the last 4 minutes of a 6 minute test.
The results are expressed as the percentage of variation of the total duration of immobility calculated from the mean value of the vehicle-treated group (% variation=[(immobility duration of vehicle−immobility duration of test compound)/(immobility duration of vehicle)]×100%).
In order to measure the in vivo efficacy of inhibiting DAT in rats using an inhibitor of the instant invention, one test inhibitor ((1), (3), or (4)) was injected i.p. as racemic mixtures of diastereomers into the animals, at various-doses (e.g. 7.5 and […]). Sibutramine (2.0 and 2.5 mg/kg), Bupropion (7.5 and 10 mg/kg), and Imipramine (30 mg/kg) were similarly administered as controls. […] Asterisks indicate highly statistical significant results.
A fourth inhibitor, (6) was administered p.o. as a racemic mixture of diastereomers at either 35 or 75 mg/kg. Sibutramine (5.0 and 3.75 mg/kg), Bupropion (30 and 40 mg/kg), and Imipramine (100 mg/kg) were similarly administered as controls.
Similarly, (1) was also administered p.o. as a racemic mixture of enriched (95:5) diastereomer at either 35 or 75 mg/kg. […]

dopamine D2 receptor = dopamine D2 receptor (Homo sapiens, UniProt P14416); assay: in vitro selectivity panel, dopamine D2 receptor; assay type: binding
Description: as §1

DAT (r) = DAT (r) (Rattus norvegicus, UniProt P23977); assay: in vitro functional uptake, rat DAT; assay type: cell-based
Histamine H1 receptor = Histamine H1 receptor (Homo sapiens, UniProt P35367); assay: in vitro selectivity panel, Histamine H1 receptor; assay type: binding
Description: as §1

DAT (SLC6A3) = molecular target: T2, DAT (SLC6A3) (Homo sapiens, UniProt Q01959); assay: in vitro inhibition profile, IC50 of DAT (uptake assay); assay type: cell-based
T2 construct: expressed in transfected cells
Description: Before the assay, cells expressing DAT are washed once with KRH and equilibrated for 5 min. The cells may be assayed in 24-well plates and incubated for 2-5 min. with tritiated amines. Nontransported inhibitors were preincubated for 5 min, and substrates were applied together with the tritiated substrate.
Experiments to determine the ionic requirements for DAT-mediated uptake are done in KRH buffer, substituting LiCl or choline Cl for NaCl (sodium-dependence) or substituting D-gluconates for NaCl and KCl, and Ca(NO3)2 for CaCl2 (chloride dependence). Cells are washed twice with sodium- or chloride-free KRH before the assay (each wash step at least 5 min). In all transport assays, incubation periods and substrate concentrations are chosen such that uptake obeyed first-order rate kinetics.
Vmax values for amine uptake in stable transfected DAT-cells are determined in parallel assays for at least two amines per experiment and expressed as relative values.

5-HT = 5-HT (Homo sapiens, UniProt P31645); assay: cell-based
NET (h) = molecular target: T3, NET (h) (Homo sapiens, UniProt P23975); assay: cell-based; assay type: cell-based; conditions: read-out: NET (h) in vitro functional uptake
T3 construct: expressed in transfected cells; host or cells: MDCK
Description: (§2) Functional activity of the compounds was determined in vitro in cellular assays using recombinant human cell lines.

DAT (h) = molecular target: T4, DAT (h) (Homo sapiens, UniProt Q01959); assay: cell-based; assay type: cell-based
T4 construct: expressed in transfected cells
Description: as §2

5-HT (h) = molecular target: T5, 5-HT (h) (Homo sapiens, UniProt P31645); assay: cell-based; assay type: cell-based; conditions: read-out: 5-HT (h) in vitro functional uptake
T5 construct: expressed in transfected cells; host or cells: HEK-293
Description: as §2

[1] = molecular target: NET (norepinephrine transporter or SLC6A2) (Homo sapiens, UniProt P23975); assay: cell-based
β1-adrenergic receptor = β1-adrenergic receptor (Homo sapiens, UniProt P08588); assay: in vitro selectivity panel, β1-adrenergic receptor; assay type: binding
Description: as §1

DAT = molecular target: T6, DAT (Homo sapiens, UniProt Q01959); conditions: human recombinant CHO-K1 cells; historical value (MDS Pharma Services); read-out: KD of radioligand, DAT assay; cited from earlier work
T6 construct: expressed in transfected cells; host or cells: CHO-K1

NET = molecular target: T7, NET (Homo sapiens, UniProt P23975); conditions: human recombinant MDCK cells; historical value (MDS Pharma Services); read-out: KD of radioligand, NET assay; cited from earlier work
T7 construct: expressed in transfected cells; host or cells: MDCK
T7 sequence (P23975 whole entry): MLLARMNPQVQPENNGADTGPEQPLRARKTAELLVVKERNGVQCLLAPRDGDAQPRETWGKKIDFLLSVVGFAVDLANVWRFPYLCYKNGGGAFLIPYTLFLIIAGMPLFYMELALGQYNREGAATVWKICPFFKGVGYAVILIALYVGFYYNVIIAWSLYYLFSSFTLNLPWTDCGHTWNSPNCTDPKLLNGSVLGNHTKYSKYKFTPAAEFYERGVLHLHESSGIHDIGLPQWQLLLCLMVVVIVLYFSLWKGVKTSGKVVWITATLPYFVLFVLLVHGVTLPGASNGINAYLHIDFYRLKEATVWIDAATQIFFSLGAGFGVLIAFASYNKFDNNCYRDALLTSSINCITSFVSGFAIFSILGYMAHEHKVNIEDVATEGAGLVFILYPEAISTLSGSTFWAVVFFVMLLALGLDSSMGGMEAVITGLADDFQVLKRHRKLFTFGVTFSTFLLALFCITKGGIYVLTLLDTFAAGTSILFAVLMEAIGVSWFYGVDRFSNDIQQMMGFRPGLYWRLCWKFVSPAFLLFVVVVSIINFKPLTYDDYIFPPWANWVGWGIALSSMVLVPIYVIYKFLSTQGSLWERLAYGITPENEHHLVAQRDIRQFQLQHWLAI

T4 sequence (Q01959 whole entry): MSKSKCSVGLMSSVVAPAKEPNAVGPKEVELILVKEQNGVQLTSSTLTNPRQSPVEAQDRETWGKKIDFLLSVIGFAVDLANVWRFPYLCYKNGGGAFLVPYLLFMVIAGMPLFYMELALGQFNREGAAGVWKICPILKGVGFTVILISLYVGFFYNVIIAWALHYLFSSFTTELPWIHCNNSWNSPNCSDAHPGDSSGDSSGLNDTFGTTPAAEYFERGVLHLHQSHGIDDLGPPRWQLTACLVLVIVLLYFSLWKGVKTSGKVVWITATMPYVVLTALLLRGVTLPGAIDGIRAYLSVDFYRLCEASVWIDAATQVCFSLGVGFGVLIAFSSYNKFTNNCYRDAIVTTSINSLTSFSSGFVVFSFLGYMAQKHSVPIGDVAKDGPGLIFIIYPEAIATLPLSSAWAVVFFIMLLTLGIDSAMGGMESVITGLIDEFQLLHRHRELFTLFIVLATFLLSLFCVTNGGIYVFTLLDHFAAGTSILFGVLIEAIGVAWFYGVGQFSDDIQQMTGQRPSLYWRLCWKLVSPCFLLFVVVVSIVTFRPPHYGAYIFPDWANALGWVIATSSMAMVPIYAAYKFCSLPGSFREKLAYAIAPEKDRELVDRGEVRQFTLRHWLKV
T2 sequence (Q01959 whole entry): as above
T6 sequence (Q01959 whole entry): as above
Histamine H1 receptor, sequence (P35367 whole entry): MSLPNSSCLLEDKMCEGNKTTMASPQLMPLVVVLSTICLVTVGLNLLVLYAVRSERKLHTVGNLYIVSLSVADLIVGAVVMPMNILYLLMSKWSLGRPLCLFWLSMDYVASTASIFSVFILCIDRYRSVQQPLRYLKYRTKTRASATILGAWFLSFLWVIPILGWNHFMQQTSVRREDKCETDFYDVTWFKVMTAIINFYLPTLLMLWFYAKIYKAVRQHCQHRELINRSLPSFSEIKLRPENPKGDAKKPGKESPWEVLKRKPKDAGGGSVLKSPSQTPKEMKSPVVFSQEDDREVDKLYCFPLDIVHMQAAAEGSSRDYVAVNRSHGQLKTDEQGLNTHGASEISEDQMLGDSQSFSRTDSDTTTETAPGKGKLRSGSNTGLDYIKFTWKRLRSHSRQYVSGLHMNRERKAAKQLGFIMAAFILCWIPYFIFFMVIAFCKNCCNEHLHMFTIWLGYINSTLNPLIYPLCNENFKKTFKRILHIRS
β1-adrenergic receptor, sequence (P08588 whole entry): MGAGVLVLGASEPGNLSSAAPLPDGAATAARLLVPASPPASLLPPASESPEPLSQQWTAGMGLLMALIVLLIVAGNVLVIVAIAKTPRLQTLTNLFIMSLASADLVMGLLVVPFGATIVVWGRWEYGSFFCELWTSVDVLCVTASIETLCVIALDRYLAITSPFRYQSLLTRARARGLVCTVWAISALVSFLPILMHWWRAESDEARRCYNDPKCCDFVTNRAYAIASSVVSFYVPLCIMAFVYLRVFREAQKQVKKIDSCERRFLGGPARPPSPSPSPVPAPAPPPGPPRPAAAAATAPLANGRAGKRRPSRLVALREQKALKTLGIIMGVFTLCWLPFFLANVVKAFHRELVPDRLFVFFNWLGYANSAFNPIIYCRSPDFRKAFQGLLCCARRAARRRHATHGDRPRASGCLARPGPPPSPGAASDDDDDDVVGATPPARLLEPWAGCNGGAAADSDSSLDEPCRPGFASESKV
sigma-1 (σ1) receptor, sequence (Q99720 whole entry): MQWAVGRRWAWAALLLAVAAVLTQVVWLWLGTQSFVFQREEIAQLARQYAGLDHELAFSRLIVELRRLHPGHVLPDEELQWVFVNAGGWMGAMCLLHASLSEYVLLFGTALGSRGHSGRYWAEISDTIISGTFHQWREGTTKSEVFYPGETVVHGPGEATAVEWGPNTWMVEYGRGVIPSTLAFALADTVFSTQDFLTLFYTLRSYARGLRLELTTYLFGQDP
DAT (r), sequence (P23977 whole entry): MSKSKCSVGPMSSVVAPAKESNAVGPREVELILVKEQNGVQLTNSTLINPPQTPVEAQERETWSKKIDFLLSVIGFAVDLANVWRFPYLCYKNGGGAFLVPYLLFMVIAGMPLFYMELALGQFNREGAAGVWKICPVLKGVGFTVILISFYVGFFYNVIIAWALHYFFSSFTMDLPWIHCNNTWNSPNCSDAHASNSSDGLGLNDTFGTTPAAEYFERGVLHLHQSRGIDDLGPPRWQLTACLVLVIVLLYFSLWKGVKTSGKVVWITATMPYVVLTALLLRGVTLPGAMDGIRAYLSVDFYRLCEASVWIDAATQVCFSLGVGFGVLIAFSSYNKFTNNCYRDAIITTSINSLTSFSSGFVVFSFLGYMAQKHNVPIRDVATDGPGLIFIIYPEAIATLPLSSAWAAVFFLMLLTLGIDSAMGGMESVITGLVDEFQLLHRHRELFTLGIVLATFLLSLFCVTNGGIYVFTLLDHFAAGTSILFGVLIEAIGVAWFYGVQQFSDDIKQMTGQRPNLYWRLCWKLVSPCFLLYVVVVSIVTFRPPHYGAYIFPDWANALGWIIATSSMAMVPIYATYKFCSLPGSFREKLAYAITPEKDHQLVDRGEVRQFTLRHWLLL
dopamine D2 receptor, sequence (P14416 whole entry): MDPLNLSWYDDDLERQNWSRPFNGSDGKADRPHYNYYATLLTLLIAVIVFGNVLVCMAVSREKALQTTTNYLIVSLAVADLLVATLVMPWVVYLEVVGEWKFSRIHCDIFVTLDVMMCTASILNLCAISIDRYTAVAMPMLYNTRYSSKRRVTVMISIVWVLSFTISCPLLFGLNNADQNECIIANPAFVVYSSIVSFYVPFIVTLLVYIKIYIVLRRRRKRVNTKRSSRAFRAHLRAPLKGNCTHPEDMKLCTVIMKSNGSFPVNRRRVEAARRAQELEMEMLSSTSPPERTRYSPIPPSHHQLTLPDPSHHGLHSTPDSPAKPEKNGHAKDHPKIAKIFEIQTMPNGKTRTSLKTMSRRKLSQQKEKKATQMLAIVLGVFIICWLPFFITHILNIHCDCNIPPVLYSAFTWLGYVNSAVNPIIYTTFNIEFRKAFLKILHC
NET (norepinephrine transporter or SLC6A2), sequence (P23975 whole entry): as the sequence (P23975 whole entry) above
T3 sequence (P23975 whole entry): as above
T5 sequence (P31645 whole entry): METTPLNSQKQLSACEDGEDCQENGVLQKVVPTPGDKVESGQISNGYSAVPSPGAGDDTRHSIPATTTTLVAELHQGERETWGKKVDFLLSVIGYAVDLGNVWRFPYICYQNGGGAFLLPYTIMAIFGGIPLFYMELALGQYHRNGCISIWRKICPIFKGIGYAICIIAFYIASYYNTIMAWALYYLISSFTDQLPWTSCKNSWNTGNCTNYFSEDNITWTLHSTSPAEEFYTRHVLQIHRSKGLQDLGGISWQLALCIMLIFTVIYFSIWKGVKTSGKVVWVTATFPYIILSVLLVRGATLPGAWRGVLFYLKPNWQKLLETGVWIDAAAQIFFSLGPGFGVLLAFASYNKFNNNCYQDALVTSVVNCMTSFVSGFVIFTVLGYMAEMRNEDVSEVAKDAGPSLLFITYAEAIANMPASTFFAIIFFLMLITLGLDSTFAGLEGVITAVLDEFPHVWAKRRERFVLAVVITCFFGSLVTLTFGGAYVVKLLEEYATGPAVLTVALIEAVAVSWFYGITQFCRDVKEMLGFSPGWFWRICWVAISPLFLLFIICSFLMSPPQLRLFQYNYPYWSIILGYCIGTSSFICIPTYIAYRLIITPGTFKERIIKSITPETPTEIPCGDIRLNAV
5-HT, sequence (P31645 whole entry): as above

CC1CCC(COc2ccc(C(F)(F)F)cc2)CN1CC1(c2ccc(Cl)cc2)CCC1 (stereo not drawn) [(3)]
Vd (in vivo): 10 L/kg | half-life (in vivo; iv): 8.33 h | bioavailability (in vivo; po): 70% | M1 (nM)h (M1 receptor): 5000 nM | Sigma σ1 (nM)h (sigma-1 (σ1) receptor): 5000 nM | forced swim test efficacy versus commercial drugs (FIG. 1) (rats): performed equally well, if not better, than the commercial drugs Sibutramine, Bupropion, and Imipramine | D2 (nM)h (dopamine D2 receptor): 1000 nM | EC50 (DAT (r)): 50 nM | Histamine H1 (nM)h (Histamine H1 receptor): 5000 nM | IC50 (DAT (SLC6A3)): 1 nM | fold selectivity of DAT against related receptors (NET, 5-HT) (DAT (SLC6A3); from Table II IC50): 150-550 fold | IC50 (5-HT): 550 nM | EC50 (NET (h)): 200 nM | EC50 (DAT (h)): 1 nM | selectivity for DAT over 5-HT (DAT (h)): 825 fold | selectivity for DAT over NET (DAT (h)): 200 fold | EC50 (5-HT (h)): 825 nM | IC50 [1]: 150 nM | β1-adrenergic (nM)h (β1-adrenergic receptor): 5000 nM

COC(=O)[C@H]1[C@@H](c2ccc(I)cc2)C[C@@H]2CC[C@H]1N2C [[^125I] RTI-55]
Kd (DAT): 0.58 nM | Kd (NET): 24 nM
